Measurements from patent US11976054B2, “Amide derivative and preparation method therefore and use thereof in medicine” (Chengdu Baiyu Pharmaceutical Co., Ltd., priority 2019, dated 2024).

Assays:
[1] = test system: Human monocyte cell line THP-1; assay: Detection of THP-1 cell pyroptosis (Caspase-Glo 1 Inflammasome Assay); type: cell-based; details: THP-1 pyroptosis, 20 nM PMA 48 h, 1 μg/mL LPS, compound 3 h
Procedure, shortened: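 Differentiated with 20 nM PMA for 48 h (50,000 cells/well), then given serum-free medium with 1 μg/mL LPS and compound in a 10-point, 3-fold series from 10 μM for 3 h at 37 °C. Caspase-1 activity read with Caspase-Glo 1 Inflammasome kit; IC50 calculated.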

[2] = Pharmacokinetic analysis of compounds in rats; type: in vivo, SD rats; details: for F %: po 10 mg/kg vs iv 1 mg/kg
Procedure, shortened: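 Fasted SD rats (180–220 g) dosed by tail vein or intragastrically. Orbital-plexus blood sampled pre-dose and from 5 min to 24 h. Plasma parent drug quantified by LC-MS/MS.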

[3] = test system: Rat dorsal air pouch models; assay: Rat dorsal air pouch pharmacodynamic models (sodium urate); type: in vivo, SD rats; details: 50 mg/kg intragastric, air pouch exudate 5 h after 1% sodium urate; for IL-1β concentration in exudate: ELISA
Description: Healthy adult male SD rats weighing 180-220 g were purchased, and rat dorsal air pouch models were constructed after adaptive feeding of the rats. On day 1, day 4 and day 7 of modeling, 20 mL of sterile air was injected subcutaneously into the back of rats by means of injection needles, and the air pouch was maintained at an inflated state. On day 8, 50 mg/kg compound or vehicle control was administered intragastrically. 5 mL of 1% sodium urate suspension was injected into the dorsal air pouch, and air pouch exudate was collected 5 h later. 40 μL of the exudate was taken for leukocyte counting. The remaining exudate was centrifuged at 1500 rpm for 20 min, and the supernatant was collected to detect the expression level of IL-1β by ELISA (BD, Human IL-1β ELISA Set II, Cat #557953).

[4] = test system: IL-1β release in human PBMCs; assay: Assay of IL-1β release in human PBMCs; type: cell-based; details: 10 ng/mL LPS 3 h, compound 0.5 h, 5 mM ATP 1 h, ELISA
Description: 5 mL of human venous whole blood from a healthy donor was placed in a Li-heparin tube. PBMCs were isolated and incubated in a culture medium containing 10 ng/mL LPS at 37° C./5% CO2 for 3 h. Cells were plated in a 96-well plate at 50 μL per well. 25 μL of compound or solvent control was added to each well and 3-fold diluted in gradient from a maximum concentration of 10 μM, and 8 gradient concentrations were set. The mixtures were incubated for 0.5 h. 25 μL of ATP at a final concentration of 5 mM was added to each well, and the resulting mixtures were incubated for 1 h. After the incubation, the mixtures were centrifuged at 1500 rpm for 20 min, and the supernatant was collected to detect the expression level of […] by ELISA (BD, Human IL-1β ELISA Set II, Cat #557953). IC50 was calculated using GraphPad Prism7.0 software. The results are shown in Table 2, which indicate that: the compounds disclosed herein down-regulate release of mature IL-1β by inhibiting the activity of Caspase-1, and the IC50 is <50 nM.

[5] = SD rats, iv (tail vein), 1 mg/kg, plasma
[6] = SD rats, po (intragastric), 10 mg/kg, plasma

Compound | IC50 [1] | AUC [2, 5] | Cl [2, 5] | Vss [2, 5] | t1/2 [2, 5] | F % ([2]; SD rats) | AUC [2, 6] | Cmax [2, 6] | t1/2 [2, 6] | Leukocyte concentration (10^6/mL) [3] | IL-1β concentration in exudate [3] | IC50 [4] | AUC ([2]; rat, in vivo, iv, 1 mg/kg) | Cl ([2]; rat, in vivo, iv, 1 mg/kg) | Vss ([2]; rat, in vivo, iv, 1 mg/kg) | t1/2 ([2]; rat, in vivo, iv, 1 mg/kg) | AUC ([2]; rat, in vivo, po, 10 mg/kg) | Cmax ([2]; rat, in vivo, po, 10 mg/kg) | t1/2 ([2]; rat, in vivo, po, 10 mg/kg)
C[C@@H](c1ccc2c(c1NC(=O)NS(=N)(=O)c1cc(C(C)(C)O)co1)CCC2)C1CC1 (mixture of isomers) [Compound 6-1, (RS, RC)- and (SS, RC)-N-((5-(-1-cyclopropylethyl)-2,3-dihydro-1H-inden-4-yl)carbamoyl)-4-(2-hydroxypropan-2-yl)furan-2-sulfonimidamide] | ≤ 100 nM | 6312 ng·h/mL | 2.7 mL/min/kg | 0.26 L/kg | 1.6 h | 65.8% | 41521 ng·h/mL | 13900 ng/mL | 2.5 h | 1.99 ± 0.4 10^6/mL | 895.7 ± 266.4 pg/mL | – | – | – | – | – | – | – | –
CC(c1ccc2c(c1NC(=O)NS(=N)(=O)c1cc(C(C)(C)O)co1)CCC2)C1CC1 (racemic) [Compound 8-1, (RS, SC)- and (SS, SC)-N-((5-(1-cyclopropylethyl)-2,3-dihydro-1H-inden-4-yl)carbamoyl)-4-(2-hydroxypropan-2-yl)furan-2-sulfonimidamide] | ≤ 100 nM | 2557 ng·h/mL | 6.8 mL/min/kg | 0.296 L/kg | 0.74 h | 56.2% | 14367 ng·h/mL | 6397 ng/mL | 2.4 h | 2.25 ± 0.5 10^6/mL | 1522.5 ± 313.2 pg/mL | 26.3 nM | – | – | – | – | – | – | –
CC(C)(O)c1coc(S(=N)(=O)NC(=O)Nc2c(CC3CCC3)ccc3c2CCC3)c1 (single isomer, unassigned) [Compound 18-2, RS- and SS-N-((5-(cyclobutylmethyl)-2,3-dihydro-1H-inden-4-yl)carbamoyl)-4-(2-hydroxypropan-2-yl)furan-2-sulfonimidamide] | ≤ 100 nM | – | – | – | – | – | – | – | – | 1.72 ± 0.3 10^6/mL | 795.5 ± 232.8 pg/mL | 11.2 nM | 3691 ng·h/mL | 5.6 mL/min/kg | 0.346 L/kg | 0.86 h | 28427 ng·h/mL | 16600 ng/mL | 3.1 h
